Assay results: publication PMC10058761, “Heart-Type Fatty Acid Binding Protein Binds Long-Chain Acylcarnitines and Protects against Lipotoxicity” (International Journal of Molecular Sciences, 2023)
Values joined by “and” are separate entries in the source; they are usually repeats but may differ in a detail not shown here. Equal entries are not always repeated.

How the values were obtained:
[1] = target: T1, human FABP3 (Homo sapiens, UniProt P05413); experiment: ITC assay of ligand binding to apo-FABP3; conditions: KPi pH 7.6, 25 °C; for N (stoichiometry): protein assumed 100% active and delipidated
T1 construct: His-tag (N); TEV cleavage site (N); made in house; host or cells: E. coli BL21(DE3)
Protocol: ITC experiments were carried out on the MicroCal™ iTC200 instrument (Malvern Instruments Ltd., Malvern, UK). Experiments were performed in KPi buffer without and with 0.1% (v/v) TX supplement. […] Experiments for the determination of the ΔCp were performed at three different temperatures: 16, 25, and 37 °C. […] Every titration started with a small 0.3 μL injection introduced to compensate for the diffusion effects. One of the following injection profiles was chosen based on the activity of the ligand and binding heat released: 1.2 μL × 32 or 1.5 μL × 26—all with 120 s time spacing between every injection and 600 rpm. Each ligand was titrated at least two times. The reference baseline consisting of small peaks of identical size (titration of the corresponding ligand into the buffer) was subtracted from the data before fitting to correct for the heat of the ligand dilution. The first injection was excluded from each dataset. The final data were fitted to a theoretical titration curve (one set of sites fitting model) using MicroCal Origin 7 SR4 software (OriginLab, Northampton, MA, USA).

[2] = target: T1, human FABP3; experiment: Ligand binding by NMR (2D 1H-15N HSQC chemical shift perturbations); conditions: KPi buffer pH 7.6
Protocol: NMR spectra were acquired on the 600 MHz Bruker Avance Neo spectrometer (Bruker Biospin GmbH, Rheinstetten, Germany) equipped with a 5-mm quadruple-resonance CryoProbe (QCI) with z-gradients. […] All experiments were performed in KPi buffer without or with TX and with the addition of 7% (v/v) D2O, 0.03% (v/v) NaN3, and 0.01% (v/v) SigmaFAST EDTA-free protease inhibitor cocktail to prevent protein degradation. The amount of organic solvent (ethanol or DMSO-d6) was below 2% (v/v) in each experiment.
3D HNCA, 3D HNCO, 3D HN(CA)CO, and 3D CBCA(CO)NH spectra were acquired for the backbone assignment. 3D [^1H,^1H]-nuclear Overhauser spectroscopy (NOESY)-^15N-heteronuclear single-quantum correlation (HSQC) spectrum was acquired using a mixing time of 100 ms and also used in the backbone assignment. 2D ^1H-^15N HSQC spectra were acquired for evaluation of the CSPs caused by the lipid binding. Chemical shifts were referenced internally to the residual water signal at 4.70 ppm relative to the 4,4-dimethyl-4-silapentane-1-sulfonic acid (DSS). […] Other complexes were analyzed by analogy and with the help of 3D [^1H-^1H]-NOESY-^15N-HSQC. All spectra were processed in TopSpin v. 4.1.1. (Bruker, Billerica, MA, USA) and analyzed in CARA 1.9.1. software. Residue-specific protein backbone amide assignment was performed based on the published chemical shifts. CSPs, Δδ, were calculated using Equation (1) with the scaling factor, α, which was set to 0.1 [67, 68]. (1) Δδ=1/2[δH2+α·δN^2],

[3] = target: T1, human FABP3; experiment: ITC competitive binding experiments (FABP3 pre-saturated with a competing ligand); conditions: FABP3 saturated with C18:1(n-9)t-carnitine, titrated with the FA, KPi without TX, 25 °C
Protocol: ITC experiments were carried out on the MicroCal™ iTC200 instrument (Malvern Instruments Ltd., Malvern, UK). Experiments were performed in KPi buffer without and with 0.1% (v/v) TX supplement. All titrations except for the determination of the heat capacity, ΔCp, were performed at 25 °C using 20–120 μM protein. Experiments for the determination of the ΔCp were performed at three different temperatures: 16, 25, and 37 °C. 280 μL of the protein solution in the sample cell were titrated with the ligand solution diluted to 200–1200 μM depending on the enzyme concentration (to achieve a 1:10 or 1:5 ratio). Every titration started with a small 0.3 μL injection introduced to compensate for the diffusion effects. One of the following injection profiles was chosen based on the activity of the ligand and binding heat released: 1.2 μL × 32 or 1.5 μL × 26—all with 120 s time spacing between every injection and 600 rpm. Each ligand was titrated at least two times. The reference baseline consisting of small peaks of identical size (titration of the corresponding ligand into the buffer) was subtracted from the data before fitting to correct for the heat of the ligand dilution. The first injection was excluded from each dataset. […]

[4] = target: T1, human FABP3; experiment: ITC determination of heat capacity change at 16, 25 and 37 °C; assay type: binding; conditions: KPi without TX; ΔH at 16, 25, 37 °C, linear regression
Source text: Heat capacity changes, ΔCp, are important indicators of the structural changes during ligand-to-protein binding in various environmental conditions and may reflect changes in the static and dynamic properties of the protein [33, 34]. Moreover, it may represent interactions with extra supplements, such as salts and detergents, and larger processes, such as changes in protein folding, solvent-accessible surface area (SASA), or protonation states within the active site. […] Thermodynamic parameters for the remaining LCFAs were determined in the KPi + TX buffer, while LCACs were tested in the KPi buffer without any additive. Figure 7 represents an example of the overlays of the ITC experiments for C18:1(n-9)c and the corresponding LCAC performed at the following temperatures: 16, 25, and 37 °C.
ITC experiments were carried out on the MicroCal™ iTC200 instrument (Malvern Instruments Ltd., Malvern, UK). Experiments were performed in KPi buffer without and with 0.1% (v/v) TX supplement. All titrations except for the determination of the heat capacity, ΔCp, were performed at 25 °C using 20–120 μM protein. Experiments for the determination of the ΔCp were performed at three different temperatures: 16, 25, and 37 °C. 280 μL of the protein solution in the sample cell were titrated with the ligand solution diluted to 200–1200 μM depending on the enzyme concentration (to achieve a 1:10 or 1:5 ratio). Every titration started with a small 0.3 μL injection introduced to compensate for the diffusion effects. One of the following injection profiles was chosen based on the activity of the ligand and binding heat released: 1.2 μL × 32 or 1.5 μL × 26—all with 120 s time spacing between every injection and 600 rpm. Each ligand was titrated at least two times. The reference baseline consisting of small peaks of identical size (titration of the corresponding ligand into the buffer) was subtracted from the data before fitting to correct for the heat of the ligand dilution. The first injection was excluded from each dataset. The final data were fitted to a theoretical titration curve (one set of sites fitting model) using MicroCal Origin 7 SR4 software (OriginLab, Northampton, MA, USA).

T1 sequence (P05413 whole entry): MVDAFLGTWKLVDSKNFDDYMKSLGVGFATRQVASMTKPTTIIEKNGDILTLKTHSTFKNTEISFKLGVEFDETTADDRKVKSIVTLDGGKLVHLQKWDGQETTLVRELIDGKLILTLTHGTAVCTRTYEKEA

| Compound | Kd ([1]; with 0.1% TX) | ΔG ([1]; with 0.1% TX) | ΔH ([1]; with 0.1% TX) | −TΔS ([1]; with 0.1% TX) | N (stoichiometry) ([1]; with 0.1% TX) | Kd ([1]; without TX) | ΔG ([1]; without TX) | ΔH ([1]; without TX) | −TΔS ([1]; without TX) | N (stoichiometry) ([1]; without TX) | binding to FABP3 (binding heat effects) by ITC ([1]; without TX) | binding to FABP3 by NMR (CSPs in 2D 1H-15N HSQC) [2] | ΔG ([3]; Competitive Binding model) | ΔH ([3]; Competitive Binding model) | -TΔS ([3]; One Set of Sites model) | Kd ([3]; One Set of Sites model) | ΔG ([3]; One Set of Sites model) | ΔH ([3]; One Set of Sites model) | ΔCp [4] | -TΔS ([3]; Competitive Binding model) |
| --- | --- | --- | --- | --- | --- | --- | --- | --- | --- | --- | --- | --- | --- | --- | --- | --- | --- | --- | --- | --- |
| CCCCCCCC(=O)O [C8:0, caprylate] | 1109 ± 1 nM | -8.13 ± 0.01 kcal/mol | -12.6 ± 0.3 kcal/mol | 4.5 ± 0.3 kcal/mol | 1.0 | 1860 ± 50 nM | -7.82 ± 0.02 kcal/mol | -8.01 ± 0.09 kcal/mol | 0.19 ± 0.07 kcal/mol | 1.0 | – | – | – | – | – | – | – | – | – | – |
| CCCCCCCC(=O)O[C@H](CC(=O)O)C[N+](C)(C)C.[Cl-] [C8:0-carnitine] | – | – | – | – | – | – | – | – | – | – | no binding | did not bind | – | – | – | – | – | – | – | – |
| CCCCCCCCCC(=O)O [C10:0, caprate] | 560 ± 20 nM | -8.535 ± 0.007 kcal/mol | – | 4.7 ± 0.3 kcal/mol | 1.0 | 252 ± 4 nM | -9.01 ± 0.01 kcal/mol | -11.09 kcal/mol and -11.09 ± 0.08 kcal/mol | 2.08 ± 0.08 kcal/mol | 1.0 | – | – | -11.8 ± 0.1 kcal/mol | -14.1 ± 0.2 kcal/mol | 1.0 ± 0.1 kcal/mol | 360 ± 70 nM | -8.8 ± 0.1 kcal/mol | -9.8 ± 0.2 kcal/mol | – | – |
| CCCCCCCCCCCC(=O)O [C12:0, laurate] | 570 ± 60 nM | -8.54 ± 0.06 kcal/mol | -14.5 ± 0.4 kcal/mol | 6.0 ± 0.3 kcal/mol | 1.0 | 200 ± 20 nM | -9.12 ± 0.06 kcal/mol | -8.60 ± 0.08 kcal/mol | -0.53 ± 0.02 kcal/mol | 1.0 | – | – | -12.5 ± 0.9 kcal/mol | -12.1 ± 0.2 kcal/mol | -1.0 ± 0.1 kcal/mol | 360 ± 30 nM | -8.80 ± 0.04 kcal/mol | -7.8 ± 0.2 kcal/mol | −0.33 kcal∙mol^−1∙K^−1 and −0.33 ± 0.01 kcal∙mol^−1∙K^−1 | -0.4 ± 1.1 kcal/mol |
| CCCCCCCCCCCC(=O)O[C@H](CC(=O)O)C[N+](C)(C)C [C12:0-carnitine] | – | – | – | – | – | – | – | – | – | – | no binding | did not bind | – | – | – | – | – | – | – | – |
| CCCCCCCCCCCCCC(=O)O [C14:0, myristate] | 300 ± 100 nM | -8.9 ± 0.2 kcal/mol | -10.9 ± 0.4 kcal/mol | 1.9 ± 0.2 kcal/mol | 1.0 | – | – | – | – | – | – | – | – | – | – | – | – | – | – | – |
| CCCCCCCCCCCCCC(=O)O[C@H](CC(=O)O)C[N+](C)(C)C.[Cl-] [C14:0-carnitine, miristoylcarnitine] | – | – | – | – | – | 11300 nM | -6.7 kcal/mol | -1.1 kcal/mol | -5.7 kcal/mol | 0.5 | – | strong CSPs indicative of binding | – | – | – | – | – | – | – | – |
